From patent US20160355782A1, “METHOD FOR ENHANCING DIFFERENTIATION OF DOPAMINERGIC NEURONS” (Buddhist Tzu Chi Medical Foundation, priority 2015, published 2016) come the findings set out here.

One experiment deals with VM precursor cultures. Briefly: Immuno-cytochemistry and TH+ cell counting in VM precursor cultures. The class given is cell-based, rat. How it is done:
Briefly, ventral mesencephalic tissues were dissected from E14.5 Sprague-Dawley (SD) rats, and then dissociated enzymatically (0.1% trypsin) and mechanically. Cells were seeded into 24-well (1×10^5/cm^2) culture plates pre-coated with 20 μg/mL poly-D-lysine (Sigma-Aldrich), and were maintained in 0.5 mL/well of minimum essential medium (MEM) supplemented with 10% fetal bovine serum (FBS), 10% horse serum (HS), 1 g/L glucose, 2 mM L-glutamine, 1 mM sodium pyruvate, 100 μM nonessential amino acids, 100 U/mL penicillin, and 100 μg/mL streptomycin (all purchased from Invitrogen). Cultures were maintained at 37° C. in a humidified atmosphere of 5% CO2 and 95% air. For DA neuron differentiation, VM precursor cultures, four hours after seeding, were switched to Dulbecco's Modified Eagle's Medium (DMEM)/Ham's F12 (1:1) containing N2 supplement (Invitrogen, Carlsbad, Calif.), penicillin and streptomycin. Immediately following the switch to DMEM/F12 medium, VM precursor cells were treated with various concentration of rat UCN (from Sigma-Aldrich, St. Louis, Mo.) for the indicated periods. For neutralization of endogenous UCN bioactivity, anti-UCN antibody (15 μg/mL) (Santa Cruz Biotechnology, Santa Cruz, Calif.) was added to the VM precursor cultures.
(§1) For immuno-cytochemistry, cells were fixed with 4% paraformaldehyde followed by blocking with PBS containing 0.4% Triton X-100, 3% normal goat serum and 2% bovine serum albumin (BSA) for 1 h at room temperature. After blocking, cells were incubated overnight at room temperature with primary antibodies. Primary antibodies were rabbit anti-UCN (1:200), mouse anti-TH (1:2000) (both from Sigma-Aldrich), goat anti-CRHR1 (1:100), rabbit anti-CRHR2 (1:250), rat anti-dopamine transporter (DAT, 1:200), chicken anti-MAP2 (1:5000) (all from Abcam, Cambridge, Mass.), rabbit anti-Nurr1 (1:100, Santa Cruz Biotechnology), mouse anti-Nurr1 (1:100, R&D Systems, Minneapolis, Minn.), rabbit anti-TH (1:1000), mouse anti-NeuN (1:200) (both from Chemicon, Temecula, Calif.), rabbit anti-acetyl-histone H3 (1:1000, Upstate Biotechnology, Lake Placid, N.Y.), rabbit anti-Foxa2 (1:500, Cell Signaling Technology), and rabbit anti-Pitx3 (1:100, Invitrogen).
(§2) For detection of dopaminergic neurons, the bound anti-TH antibody was visualized by incubation with an appropriate biotinylated secondary antibody followed by the Vectastain avidin-biotin-peroxidase (ABC) reagents (Vector Laboratories, Burlingame, Calif.) and color development with 3,3′-diaminobenzidine. The number of TH-positive neurons were counted in the entire surface area of a culture well or coverslip. For fluorescent double-labeling experiments, cells were incubated for 1 h at room temperature with rhodamine-conjugated donkey anti-mouse IgG (1:250), FITC-conjugated goat anti-rabbit IgG (1:250) or FITC-conjugated donkey anti-goat IgG (1:200) secondary antibodies (all from Jackson Immuno Research, West Grove, Pa.). Samples were counter-stained with Hoechst 33342 (5 μg/mL, Sigma-Aldrich) or DAPI (1 μg/mL), and mounted with 50% glycerol in PBS. Microscopic observations were done with a Zeiss Axiovert 200 M fluorescent microscope or a Zeiss LSM 510 META confocal imaging system (Carl Zeiss, Oberkochen, Germany). Immuno-reactive or Hoechst 33342-stained cells were counted in at least 10 random areas of each culture coverslip at a magnification of 100×.

In experiment [1] the test system is cortical neural precursor cells (NPCs). As to the kind of experiment: TH+ cell differentiation of lentivirus-transduced (Nurr1 or GFP) cortical NPCs. The class given is cell-based, rat. How it is done:
Cultures of neural precursor cells (NPCs) derived from cortices at E13.5 were performed as the methods known by a person skilled in the art, for example, as the protocol described by Huang et al. (2012) and carried out with some modifications. Briefly, dissected cortical tissues were mechanically triturated and plated at 5×10^4 cells on coverslips (12-mm diameter) pre-coated with 20 μg/mL fibronectin (Invitrogen)/15 μg/mL poly-L-ornithine (Sigma-Aldrich) in 24 well plates. Cells were cultured in a serum-free NPCs culture medium containing DMEMF12, 2% B27 supplement (Invitrogen), 0.6% glucose, 20 ng/mL bFGF (Sigma-Aldrich), 20 ng/mL EGF (Invitrogen), 2 μg/mL heparin (Sigma-Aldrich), 100 U/mL penicillin, and 100 μg/mL streptomycin.
TH promoter assay or lenti-virial transductions were carried out at 60%˜70% cell confluences (usually for 3 days) as described below. Cell differentiation was induced for 3 to 5 days by switching to mitogens-free DMEM/F12/N2 medium in the presence of 0.5 μM UCN. Differentiation medium was changed every other day.
For lenti-viral transduction, E13 cortical NPCs were incubated with lenti-viruses (25 multiplicity of infection) expressing Nurr1 or GFP containing poly-brene (hexadimethrine bromide, 1 μg/mL, Sigma-Aldrich) for 24 hours. After 1 day of further cell expansion in the presence of the mitogens, cells were induced to differentiate.
as §1, §2

Experiment [2] concerns TH promoter in SH-SY5Y cells. As to the kind of experiment: TH promoter assay (pTH6.0-GL3 luciferase) in SH-SY5Y cells. The class given is cell-based, human. To be noted: 24 hours; for elicited TH promoter activity on forced MeCP2 or CoREST expression / elicited TH promoter activity on co-transfection with HDAC1: 1 μM UCN or 1.25 mM SB; for elicited TH promoter activity on co-transfection with HDAC1: pK7-HDAC1 co-transfection. From the text:
The luciferase reporter vector pTH6.0-GL3 constructed by engineering the 6.0 kb upstream sequences of the rat TH (TH6.0) gene into pGL3 was kindly provided by Dr. Kwang-Soo Kim (Harvard Medical School, Belmont, Mass.). Vector expressing Nurr1 (mouse) was constructed by inserting the respective cDNA into pAAV-MCS vector (pAAV-Nurr1), in which the cloned gene is designed to be expressed under the control of the cytomegalovirus (CMV) immediate-early promoter. pTH6.0-GL3 alone or combined with pAAV-Nurr1 were transfected into a human neuro-blastoma SH-SY5Y cell line or cortical NPCs, respectively, using Lipofectamine 2000 (Invitrogen) according to the protocol of the manufacturer. For determine the effect of MeCP2-CoREST-HDAC1 repressor complex on TH promoter activity, the SH-SY5Y cells were double transfected with pTH6.0-GL3 and pCMV6-Entry-Mecp2 (Flag-tagged MeCP2)/or pCMV6-Entry-Rcor1 (Flag-tagged CoREST) (both from OriGene Technologies, Rockville, Md.)/or pK7-HDAC1-GFP (Addgene). At 24 h after transfection, cells were treated with 1 μM UCN or 1.25 mM SB for another 24 h. Luciferase activity of cell lysates was determined luminometrically by the luciferase assay system (Promega, Madison, Wis.) as specified by the manufacturer. Luciferase activity was normalized to the protein content of the extracts. Relative luciferase activity was determined to reflect promoter activity of TH, expressed as the fold increase relative to the activity of control or untreated mock control.

In the case of `CCCC(=O)[O-].[Na+]` [SB, sodium butyrate, reference compound], in the experiment on VM precursor cultures (1.25 mM SB, 3 days), the “% TH+ cells out of total Nurr1+ cells (conversion of Nurr1+ precursors)” value is on record as “increased DA cell numbers was through conversion of Nurr1^+ precursors into DA neurons” and the “cells with TH staining” value is on record as “increase in cells with TH staining”. Also, the “TH+ cell numbers” value in experiment [1] (Nurr1-transduced cortical NPCs, SB, 3 days) is listed as “increase in TH^+ cell numbers”. Further, in experiment [2], the “elicited TH promoter activity on forced MeCP2 or CoREST expression” value was “attenuation” and the “elicited TH promoter activity on co-transfection with HDAC1” value was “significantly attenuated”. In experiment [2] (1.25 mM SB), the TH promoter activity entry was “increase TH promoter activity”.
Turning to Urocortin [UCN], in the experiment with VM precursor cultures (1 μM UCN as early as 1 day in vitro vs control medium at 4 days in vitro), the “number of TH+ neurons over time” value was “clearly higher than that of control medium”. For the same molecule, in the experiment on VM precursor cultures (1 μM UCN, 2 to 3 days), the Nurr1-immuno-reactive intensity entry is on record as “increased”; the “level of Foxa2 and Pitx3 in Nurr1+ cells” value was “increased level”. Also, in the experiment on VM precursor cultures (1 μM UCN, 4 days, double immuno-staining), the “TH+ cells co-expressing NeuN, MAP2 and DAT” value is given as “all the TH^+ cells”. In addition, in the experiment with VM precursor cultures (UCN treated cultures (control 4.91%±0.54%)), the “number of Nurr1+ cells” value is reported as 4.68%±0.4%. The “differentiation of Nurr1+/TH- precursors into Nurr1+/TH+ DA neurons” value in the experiment on VM precursor cultures (UCN vs control) is recorded as “more Nurr1^+ cells develop concomitant TH^+ expression”. Also, the “numbers of TH+ cells” value in the experiment with VM precursor cultures (increasing doses of UCN, 3 days) is given as “dose-dependent increase”. Further, the “conversion of Nurr1+ cortical NPCs into DA neurons” value in experiment [1] (0.5 μM UCN, 3 days) is reported as “increased the conversion”. The “TH+ cells expressing the mature DA neuron-specific marker DAT” value in experiment [1] (Nurr1-transduced NPCs, 0.5 μM UCN, 4 days) is on record as “almost all of TH^+ cells”. Besides, in experiment [1] (cortical NPCs transduced with GFP, 0.5 μM UCN, 3 days), the “TH+ cell numbers” value is reported as “do not change”. For the same molecule, the “TH+ cell numbers” value in experiment [1] (cortical NPCs transduced with Nurr1, 0.5 μM UCN, 3 days) is recorded as “increase in TH^+ cell numbers”. Besides, in experiment [2], the “elicited TH promoter activity on forced MeCP2 or CoREST expression” value is recorded as “attenuation” and the “elicited TH promoter activity on co-transfection with HDAC1” value is listed as “significantly attenuated”. Further, the “TH promoter activity (relative luciferase activity)” value in experiment [2] (1 μM UCN) is recorded as “activation of the TH promoter”.
